Experimental data published in publication PMC4254045 (Bioorganic & medicinal chemistry, 2014).
“Also recorded” adds a separate entry of the source. One block for each molecule: values may come before it. Square brackets hold non-standard residues; d marks the D form. Peptide text beside a SMILES is read from it. dPhe(4-guanidino) = N=C(N)Nc1ccc(C[C@@H](N)C(=O)O)cc1; Phe(4-guanidino) = N=C(N)Nc1ccc(C[C@H](N)C(=O)O)cc1

Columns and labels:
human MrgX1 [1] = biological target: T1, human MrgX1 (Homo sapiens, UniProt Q96LB2); test: FLIPR agonist assay, HEK293 cells stably transfected with human MrgX1; assay type: cell-based
rat MrgC = biological target: T2, rat MrgC (Rattus norvegicus, UniProt Q8R4G1); test: FLIPR agonist assay, transiently transfected HEK293 or KNRK cells, rat MrgC; assay type: cell-based
T2 sequence (Q8R4G1 1-323): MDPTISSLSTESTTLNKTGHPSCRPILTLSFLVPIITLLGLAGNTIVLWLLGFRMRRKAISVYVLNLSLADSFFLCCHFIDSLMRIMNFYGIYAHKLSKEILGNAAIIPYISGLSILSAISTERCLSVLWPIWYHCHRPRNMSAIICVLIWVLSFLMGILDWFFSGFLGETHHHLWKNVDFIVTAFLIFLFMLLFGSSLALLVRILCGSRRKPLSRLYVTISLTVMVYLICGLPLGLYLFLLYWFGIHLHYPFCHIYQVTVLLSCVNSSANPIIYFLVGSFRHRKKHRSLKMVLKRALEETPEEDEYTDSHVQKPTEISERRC

mouse MrgC11 [2] = biological target: T3, mouse MrgC11 (Mus musculus, UniProt Q8CIP3); test: FLIPR agonist assay, transiently transfected HEK293 or KNRK cells, mouse MrgC11; assay type: cell-based; conditions: for agonist activity at mouse MrgC11 (in words): full agonism relative to BAM8-22
T3 sequence (Q8CIP3 1-322): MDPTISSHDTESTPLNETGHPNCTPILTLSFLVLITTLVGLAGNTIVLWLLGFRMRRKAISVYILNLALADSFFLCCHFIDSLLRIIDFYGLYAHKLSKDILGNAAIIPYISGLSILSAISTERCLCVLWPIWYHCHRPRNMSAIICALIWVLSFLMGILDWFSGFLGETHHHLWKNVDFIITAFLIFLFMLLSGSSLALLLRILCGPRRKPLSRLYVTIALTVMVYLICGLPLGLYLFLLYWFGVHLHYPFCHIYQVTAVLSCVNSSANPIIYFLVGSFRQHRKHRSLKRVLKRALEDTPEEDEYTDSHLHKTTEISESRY

human MrgX1 [3] = biological target: T1, human MrgX1; test: Antagonist activity in human MrgX1 using BAM8-22; assay type: cell-based; conditions: human MrgX1, BAM8-22 (200 nM) as agonist
rats = conditions: cited from earlier work
mice = conditions: cited from earlier work
mouse MrgC11 [4] = biological target: T3, mouse MrgC11; conditions: cited from earlier work
[5] = highest concentration tested due to limited solubility
[6] = FLIPR, transiently transfected HEK293 or KNRK cells, average of at least three independent experiments ± SD

T1 sequence (Q96LB2 whole entry): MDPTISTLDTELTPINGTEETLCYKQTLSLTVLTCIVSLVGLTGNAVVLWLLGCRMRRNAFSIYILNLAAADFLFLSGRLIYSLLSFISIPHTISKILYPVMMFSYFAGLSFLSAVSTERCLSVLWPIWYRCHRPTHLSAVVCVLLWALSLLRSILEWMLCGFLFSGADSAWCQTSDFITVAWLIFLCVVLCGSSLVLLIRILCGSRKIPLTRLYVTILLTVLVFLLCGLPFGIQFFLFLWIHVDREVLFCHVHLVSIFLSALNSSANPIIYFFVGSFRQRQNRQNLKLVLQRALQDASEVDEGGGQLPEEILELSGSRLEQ

Molecule: COc1ccc(-c2ccc(C(=O)Nc3cccc(Cn4ncc(N5CCNCC5)cc4=O)c3C)cc2)cn1 [1c, reference compound]
agonist activity at human MrgX1 (in words) (human MrgX1 [1]; FLIPR): selectively activated human MrgX1 | agonist activity at rat MrgC at concentrations up to 2 μM (rat MrgC; [5]): no measurable agonist activity | agonist activity at mouse MrgC11 at concentrations up to 2 μM (mouse MrgC11 [2]; [5]): no measurable agonist activity

Molecule: N=C(N)N[C@@H]1CN[C@H](C(=O)N[C@@H](Cc2ccccc2)C(N)=O)C1 [compound 12, (2S,4S)-N-((S)-1-amino-1-oxo-3-phenylpropan-2-yl)-4-guanidinopyrrolidine-2-carboxamide bis(trifluoroacetate)]
agonist activity at rat MrgC (in words) (rat MrgC; FLIPR): failed to show agonist activity

Molecule: N=C(N)NC[C@@H]1CN[C@H](C(=O)N[C@@H](Cc2ccccc2)C(N)=O)C1 [compound 16, (2S,4S)-N-((S)-1-amino-1-oxo-3-phenylpropan-2-yl)-4-(guanidinomethyl)pyrrolidine-2-carboxamide bis(trifluoroacetate)]
agonist activity at rat MrgC (in words) (rat MrgC; FLIPR): failed to show agonist activity

Molecule: Arg-Phe
EC50 for activating MrgC11 (in words) (mouse MrgC11 [4]): submicromolar

Molecule: Phe-Met-Arg-Phe-NH2
MrgC11 agonist activity (in words) (mouse MrgC11 [4]): submicromolar

Molecule: Phe-Met-D-Arg-Phe-NH2
MrgC11 agonist activity (in words) (mouse MrgC11 [4]): inactive

Now from value to molecule, other results behind:

EC50 (human MrgX1 [1]): > 100 µM | EC50 (rat MrgC): > 100 µM
Molecule: N=C(N)Nc1cccc(C(N)C(=O)N[C@@H](Cc2ccccc2)C(N)=O)c1 (some centres unmarked) [20a]
agonist activity at rat MrgC (in words) (rat MrgC; FLIPR): failed to show agonist activity; also recorded: Neither of the analogs showed agonist activity

pEC50 Rat MrgC (rat MrgC; [6]): <4 | pEC50 Mouse MrgC11 (mouse MrgC11 [2]; [6]): 4.5 ± 0.1
Molecule: N=C(N)Nc1cccc(C(N)C(=O)N[C@@H](Cc2ccccc2)C(N)=O)c1 (some centres unmarked) [20b]
agonist activity at rat MrgC (in words) (rat MrgC; FLIPR): failed to show agonist activity; also recorded: Neither of the analogs showed agonist activity

agonist activity at rat MrgC (in words) (rat MrgC; FLIPR): exhibited agonist activity | agonist activity at mouse MrgC11 (in words) (mouse MrgC11 [2]; FLIPR): exhibited agonist activity
Molecule: N=C(N)Nc1ccc(C[C@H](N)C(=O)N[C@@H](Cc2ccccc2)C(N)=O)cc1 [24a, (2S)-2-amino-N-((2S)-1-amino-1-oxo-3-phenylpropan-2-yl)-3-(4-guanidinophenyl)propanamide bis(trifluoroacetate)] (H-[Phe(4-guanidino)]-Phe-NH2)

agonist activity at rat MrgC (in words) (rat MrgC; FLIPR): exhibited agonist activity | fold more potent than 24a at rat MrgC (rat MrgC; relative to diastereomer 24a): ~100 fold | agonist activity at mouse MrgC11 (in words) (mouse MrgC11 [2]; FLIPR): exhibited agonist activity | fold more potent than 24a at mouse MrgC11 (mouse MrgC11 [2]; relative to diastereomer 24a): ~10 fold
Molecule: N=C(N)Nc1ccc(C[C@@H](N)C(=O)N[C@@H](Cc2ccccc2)C(N)=O)cc1 [24b, (2R)-2-amino-N-((2S)-1-amino-1-oxo-3-phenylpropan-2-yl)-3-(4-guanidinophenyl)propanamide bis(trifluoroacetate)] (H-[dPhe(4-guanidino)]-Phe-NH2)
antagonist activity at concentrations up to 200 μM (human MrgX1 [3]): Neither Arg-Phe-NH2 nor 24b, however, showed any antagonist activity | effect on neuropathic pain (rats): attenuated neuropathic pain | effect on neuropathic pain (mice): attenuated neuropathic pain
